# Laboratory results reported in Sander's compilation of Henry's law constants (doi:10.1007/s002160101077).
# Assay: Henry solubility constant Hcp at 298.15 K (mol/(m3 Pa))
# Details: reference: Pfeifer et al. (2001)
row,SMILES,Henry solubility constant Hcp
1,"COc1cc(Cl)c(Cl)c(Cl)c1Cl [1,2,3,4-tetrachloro-5-methoxybenzene]",0.0065
2,"COc1c(Cl)cc(Cl)c(Cl)c1Cl [1,2,3,5-tetrachloro-4-methoxybenzene]",0.0031
3,"COc1ccc(Cl)c(Cl)c1Cl [1,2,3-trichloro-4-methoxybenzene]",0.013
4,"COc1cc(Cl)c(Cl)c(Cl)c1 [1,2,3-trichloro-5-methoxybenzene]",0.0044
5,"COc1c(Cl)c(Cl)cc(Cl)c1Cl [1,2,4,5-tetrachloro-3-methoxybenzene]",0.0032
6,"COc1c(Cl)ccc(Cl)c1Cl [1,2,4-trichloro-3-methoxybenzene]",0.0098
7,"COc1cc(Cl)c(Cl)cc1Cl [1,2,4-trichloro-5-methoxybenzene]",0.011
8,"COc1cccc(Cl)c1Cl [1,2-dichloro-3-methoxybenzene]",0.022
9,"COc1ccc(Cl)c(Cl)c1 [1,2-dichloro-4-methoxybenzene]",0.0092
10,"COc1c(Br)cc(Br)cc1Br [1,3,5-tribromo-2-methoxybenzene]",0.013
11,"COc1c(Cl)cc(Cl)cc1Cl [1,3,5-trichloro-2-methoxybenzene]",0.0046
12,"COc1c(Br)cccc1Br [1,3-dibromo-2-methoxybenzene]",0.037
13,"COc1c(Cl)cccc1Cl [1,3-dichloro-2-methoxybenzene]",0.0088
14,"COc1cc(Cl)cc(Cl)c1 [1,3-dichloro-5-methoxybenzene]",0.0023
15,"COc1cc(Cl)ccc1Cl [1,4-dichloro-2-methoxybenzene]",0.021
16,"COc1ccc(Br)cc1Br [1,5-dibromo-2-methoxybenzene]",0.081
17,"COc1ccc(Cl)cc1Cl [1,5-dichloro-2-methoxybenzene]",0.012
18,COc1ccccc1Br [1-bromo-2-methoxybenzene],0.029
19,COc1cccc(Br)c1 [1-bromo-3-methoxybenzene],0.0072
20,COc1ccc(Br)cc1 [1-bromo-4-methoxybenzene],0.011
21,COc1cccc(Cl)c1 [1-chloro-3-methoxybenzene],0.045

row,SMILES,Henry solubility constant Hcp
1,"COc1c(Br)cc(Br)c(Cl)c1Br [2,4,6-tribromo-3-chloro-1-methoxybenzene]",0.0091
2,"COc1cc(Cl)c(Br)c(Cl)c1Br [2,4-dibromo-3,5-dichloro-1-methoxybenzene]",0.0091
3,"COc1c(Br)cc(Br)c(Cl)c1Cl [2,4-dibromo-5,6-dichloro-1-methoxybenzene]",0.0098
4,"COc1c(Br)cc(Cl)cc1Br [2,6-dibromo-4-chloro-1-methoxybenzene]",0.011
5,"COc1cc(Cl)cc(Cl)c1Br [2-bromo-3,5-dichloro-1-methoxybenzene]",0.011
6,"COc1c(Cl)cc(Cl)cc1Br [2-bromo-4,6-dichloro-1-methoxybenzene]",0.012
7,COc1ccc(Cl)cc1Br [2-bromo-4-chloro-1-methoxybenzene],0.018
8,COc1c(Cl)cccc1Br [2-bromo-6-chloro-1-methoxybenzene],0.014
9,"COc1c(Cl)cc(Cl)c(Br)c1Cl [3-bromo-2,4,6-trichloro-1-methoxybenzene]",0.01
10,"COc1c(Cl)c(Cl)cc(Br)c1Cl [3-bromo-2,5,6-trichloro-1-methoxybenzene]",0.01
11,"COc1c(Cl)c(Cl)c(Br)c(Cl)c1Cl [4-bromo-2,3,5,6-tetrachloro-1-methoxybenzene]",0.0092
12,"COc1c(Cl)cc(Br)c(Cl)c1Cl [4-bromo-2,3,6-trichloro-1-methoxybenzene]",0.01
13,"COc1ccc(Br)c(Cl)c1Cl [4-bromo-2,3-dichloro-1-methoxybenzene]",0.011
14,"COc1c(Cl)cc(Br)cc1Cl [4-bromo-2,6-dichloro-1-methoxybenzene]",0.012
15,COc1ccc(Br)cc1Cl [4-bromo-2-chloro-1-methoxybenzene],0.013
16,"COc1cc(Cl)c(Br)c(Cl)c1 [4-bromo-3,5-dichloro-1-methoxybenzene]",0.011
17,"COc1cc(Br)c(Cl)cc1Cl [5-bromo-2,4-dichloro-1-methoxybenzene]",0.011
18,"COc1c(Br)ccc(Cl)c1Cl [6-bromo-2,3-dichloro-1-methoxybenzene]",0.011
19,COc1c(Br)c(Br)c(Br)c(Br)c1Br [pentabromomethoxybenzene],1
20,COc1c(Cl)c(Cl)c(Cl)c(Cl)c1Cl [pentachloromethoxybenzene],0.0021
